Patent US8946234B2, “Halogen-substituted compounds” (Bayer CropScience AG, priority 2008, dated 2015)

Assay: physchem
Format: physicochemical
Conditions: not given
Method in brief: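 Following EEC Directive 79/831 Annex V.A8, logP is obtained from retention on a 1.8 micron C18 column (50×4.6 mm) at 55 °C and 2.0 ml/min. Elution ran 10→95% acetonitrile (0.1% formic acid) against water (0.09% formic acid) in 4.25 min, held 1.25 min; mass detection used.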

Which logP does the source give for Cc1nc(C(F)(F)F)ccc1C(=O)Nc1ccc(Cl)c(C(=O)NC2CC2)c1 [Ir-2] here?
The logP was 2.27^a).

With Cn1nc(C(F)(F)F)c(Cl)c1C(=O)Nc1ccc(Cl)c(C(=O)NC2CC2F)c1 (stereo not shown) [Ik-153] as the compound, how does the logP read?
The logP was 2.86^a).

With CNC(=O)c1cc(NC(=O)c2c(C(F)(F)F)c(C(F)(F)C(F)(F)F)nn2C)ccc1Cl [Ik-85] as the compound, how does the logP read?
Its logP is 3.04^a).

Which logP does the source give for Cc1nc(C(F)(F)C(F)(F)F)ncc1C(=O)Nc1ccc(Cl)c(C(=O)NC2CC2)c1 [Ib-23] here?
The logP was 2.76^a).

Which logP does the source give for Cn1nc(C(F)(F)C(F)(F)F)c(I)c1C(=O)Nc1ccc(Cl)c(C(=O)NCC(F)(F)F)c1 [Ik-99] here?
Its logP is 3.52^a).

Which logP does the source give for Cn1nc(OCC(F)(F)F)c(Cl)c1C(=O)Nc1ccc(Cl)c(C(=O)NCC(F)(F)F)c1 [Ik-243] here?
Its logP is 3.27^a).

For Cn1nc(C(F)(F)C(F)(F)F)c(C(F)(F)F)c1C(=O)Nc1ccc(OC(F)F)c(C(=O)O)c1 [Ik-104], which logP is on record?
The logP was 3.23^a).

Which logP does the source give for CSc1c(Br)cc(NC(=O)c2c(C(F)(F)F)c(C(F)(F)C(F)(F)F)nn2C)cc1C(=O)NC1CC1 [Ik-198] here?
The logP was 3.87^a).

For Cn1nc(-c2ccc(OC(F)(F)F)cc2)c(Br)c1C(=O)Nc1ccc(Cl)c(C(=O)NCC(F)(F)F)c1 [Ik-255], which logP is on record?
Its logP is 4.15^a).

For Cn1nc(C(F)(F)C(F)(F)F)c(C(F)(F)F)c1C(=O)Nc1cc(Cl)c(Br)c(C(=O)NC2CC2)c1 [Ik-213], which logP is on record?
The logP was 3.81^a).

Which logP does the source give for Cn1nc(C(F)(F)F)c(Cl)c1C(=O)Nc1ccc(Cl)c(C(=O)NC2CC2)c1 [Ik-18] here?
Its logP is 2.77^a).

With O=C(NC1CC1)c1cc(NC(=O)c2cnc(C(F)(F)C(F)(F)F)nc2C(F)(F)F)ccc1Cl [Ib-7] as the compound, how does the logP read?
The logP was 3.20^a).

With Cn1nc(C(F)(F)C(F)(F)F)c(C(F)(F)F)c1C(=O)Nc1cc(Br)c(I)c(C(=O)NCC(F)(F)F)c1 [Ik-212] as the compound, how does the logP read?
The logP was 4.15^a).

With Cc1nc(C(F)(F)F)ncc1C(=O)Nc1ccc(Cl)c(C(=O)NCC=CCl)c1 [Ib-21] as the compound, how does the logP read?
The logP was 2.69^a).

Which logP does the source give for Cn1nc(C(F)(F)C(F)(F)F)c(C(F)(F)F)c1C(=O)Nc1cc(Br)cc(C(=O)NC2CC2)c1 [Ik-221] here?
Its logP is 3.74^a).

For Cn1nc(C(F)(F)F)c(C(F)(F)F)c1C(=O)Nc1ccc(Cl)c(C(=O)NC2CC2)c1 [Ik-195], which logP is on record?
Its logP is 2.89^a).

Which logP does the source give for Cn1nc(OCC(F)(F)F)c(F)c1C(=O)Nc1ccc(Cl)c(C(=O)NC2CC2)c1 [Ik-260] here?
The logP was 2.75^a).

Which logP does the source give for CN(C(=O)c1c(C(F)(F)F)c(C(F)(F)C(F)(F)F)nn1C)c1ccc(Cl)c(C(=O)NC2CC2)c1 [Ik-132] here?
The logP was 3.30^a).

Which logP does the source give for CC(C)n1nc(C(F)(F)C(F)(F)F)c(C(F)(F)F)c1C(=O)Nc1ccc(Cl)c(C(=O)NC2CC2)c1 [Ik-218] here?
The logP was 4.02^a).

With Cn1nc(C(F)(F)C(F)(F)F)c(C(F)(F)F)c1C(=O)Nc1ccc(F)c(C(=O)NCC(F)(F)F)c1 [Ik-156] as the compound, how does the logP read?
Its logP is 3.66^a).

Which logP does the source give for Cn1nc(C(F)(F)F)c(Br)c1C(=O)Nc1ccc(Cl)c(C(=O)NCC=CCl)c1 [Ik-22] here?
Its logP is 3.20^a).

For Cn1nc(OCC(F)(F)F)c(Cl)c1C(=O)Nc1ccc(Cl)c(C(=O)NC2CC2)c1 [Ik-242], which logP is on record?
Its logP is 2.89^a).

Which logP does the source give for Cn1nc(C(F)(F)C(F)(F)F)c(C(F)(F)F)c1C(=O)Nc1cc(Cl)c(I)c(C(=O)NC2CC2)c1 [Ik-204] here?
Its logP is 3.84^a).

For Cn1nc(C(F)(F)C(F)(F)F)c(C(F)(F)F)c1C(=O)Nc1cc(C(=O)NCC(F)(F)F)c(Cl)cn1 [Ik-317], which logP is on record?
The logP was 3.61^a).

With Cn1nc(C(F)(F)C(F)(F)F)c(C(F)(F)F)c1C(=O)Nc1ccc(Cl)c(C(=O)NCc2ccccc2)c1 [Ik-84] as the compound, how does the logP read?
Its logP is 3.90^a).

With O=C(NC1CC1)c1cc(NC(=O)c2cnc(C(F)(F)F)nc2C(F)(F)F)ccc1Cl [Ib-3] as the compound, how does the logP read?
Its logP is 2.78^a).

With Cn1nc(C(F)(F)C(F)(F)F)c(C(F)(F)F)c1C(=O)Nc1ccc([N+](=O)[O-])c(C(=O)NCC(F)(F)F)c1 [Ik-181] as the compound, how does the logP read?
Its logP is 3.58^a).

For O=C(NCC=CCl)c1cc(NC(=O)c2cnc(C(F)(F)F)nc2C(F)(F)F)ccc1Cl [Ib-5], which logP is on record?
The logP was 3.19^a).

Which logP does the source give for Cn1nc(C(F)(F)C(F)(F)F)c(C(F)(F)F)c1C(=O)Nc1cc2c(cc1F)COC2=O [Ik-105] here?
The logP was 3.27^a).

Which logP does the source give for Cc1nc(C(F)(F)C(F)(F)F)ncc1C(=O)Nc1ccc(Cl)c(C(=O)NCC(F)(F)F)c1 [Ib-24] here?
The logP was 3.16^a).

With Cn1nc(C(F)(F)C(F)(F)F)c(C(F)(F)F)c1C(=O)Nc1ccc(I)c(C(=O)NC2CC2)c1 [Ik-183] as the compound, how does the logP read?
Its logP is 3.45^a).

With Cc1nc(C(F)(F)C(F)(F)F)nc(C)c1C(=O)Nc1ccc(Cl)c(C(=O)NC2CC2)c1 [Ib-8] as the compound, how does the logP read?
Its logP is 2.82^a).

Which logP does the source give for Cn1nc(C(F)(F)C(F)(F)F)c(C(F)(F)F)c1C(=O)Nc1cc(F)c(I)c(C(=O)NCC(F)(F)F)c1 [Ik-226] here?
The logP was 3.95^a).

With Cn1nc(-c2ccc(C(F)(F)F)cc2)c(Br)c1C(=O)Nc1ccc(Cl)c(C(=O)NCC(F)(F)F)c1 [Ik-253] as the compound, how does the logP read?
The logP was 3.99^a).

With Cn1nc(C(F)(F)C(F)(F)F)c(C(F)(F)F)c1C(=O)Nc1cc(Br)c(Br)c(C(=O)NC2CC2)c1 [Ik-207] as the compound, how does the logP read?
The logP was 3.84^a).

For CC(NC(=O)c1cc(NC(=O)c2c(I)c(C(F)(F)C(F)(F)C(F)(F)C(F)(F)F)nn2C)ccc1Cl)C1CC1 (stereo not shown) [Ik-267], which logP is on record?
The logP was 4.38^a).

With O=C(NC1CC1)c1cc(NC(=O)c2cnc(OCC(F)(F)C(F)(F)F)cc2C(F)(F)F)ccc1Cl [Ij-3] as the compound, how does the logP read?
Its logP is 3.44^a).

Which logP does the source give for Cn1nc(C(F)(F)F)c(Cl)c1C(=O)Nc1ccc(Cl)c(C(=O)NCC(F)(F)F)c1 [Ik-154] here?
The logP was 3.20^a).

Which logP does the source give for Cc1nc(C(F)(F)C(F)(F)F)nc(C)c1C(=O)Nc1ccc(Cl)c(C(=O)NCc2ccccc2)c1 [Ib-14] here?
The logP was 3.49^a).

With Cn1nc(C(F)F)c(C(F)(F)F)c1C(=O)Nc1ccc(Cl)c(C(=O)NC2CC2)c1 [Ik-231] as the compound, how does the logP read?
The logP was 2.46^a).

With Cn1nc(C(F)(F)C(F)(F)F)c(C(F)(F)F)c1C(=O)Nc1ccc(Cl)c(C(N)=O)c1 [Ik-163] as the compound, how does the logP read?
The logP was 2.83^a).

With CC(C)N(C(=O)c1c(C(F)(F)F)c(C(F)(F)C(F)(F)F)nn1C)c1ccc(Cl)c(C(=O)NCC(F)(F)F)c1 [Ik-139] as the compound, how does the logP read?
The logP was 4.02^a).

Which logP does the source give for O=C(NCC(F)(F)F)c1cc(NC(=O)c2cnc(C(F)(F)C(F)(F)F)nc2C(F)F)ccc1Cl [Ib-28] here?
The logP was 3.27^a).

With Cn1nc(C(F)(F)C(F)(F)F)c(C(F)(F)F)c1C(=O)Nc1ccc(Cl)c(C(=O)OCC(=O)NCO)c1 [Ik-115] as the compound, how does the logP read?
The logP was 2.93^a).

For Cc1nc(C(F)(F)F)ccc1C(=O)Nc1ccc(Cl)c(C(=O)NC(C)C)c1 [Ir-4], which logP is on record?
Its logP is 2.53^a).

For CCc1c(C(F)(F)C(F)(F)F)nn(C)c1C(=O)Nc1cccc(C(=O)NC2CC2)c1 [Ik-263], which logP is on record?
The logP was 3.05^a).

Which logP does the source give for Cn1nc(C(F)(F)C(F)(F)F)c(C(F)(F)F)c1C(=O)Nc1ccc(F)c(C(=O)NC2CC2)c1 [Ik-155] here?
Its logP is 3.31^a).

For O=C(NC1CC1)c1cc(NC(=O)c2cnc(C(F)(F)C(F)(F)F)nc2C2CC2)ccc1Cl [Ib-30], which logP is on record?
The logP was 3.28^a).

With COc1ccc(NC(=O)c2c(C(F)(F)F)c(C(F)(F)C(F)(F)F)nn2C)cc1C(=O)NC1CC1 [Ik-185] as the compound, how does the logP read?
Its logP is 3.32^a).

With Cn1nc(C(F)(F)C(F)(F)F)c(C(F)(F)F)c1C(=O)Nc1cc(C(=O)NCC(F)(F)F)c(F)cc1F [Ik-146] as the compound, how does the logP read?
The logP was 3.64^a).

With Cn1nc(C(F)(F)C(F)(F)F)c(C(F)(F)F)c1C(=O)Nc1ccc(F)c(C(=O)NC2CC2F)c1 (stereo not shown) [Ik-168] as the compound, how does the logP read?
Its logP is 3.35^a).

Which logP does the source give for Cn1nc(C(F)(F)C(F)(F)F)c(C(F)(F)F)c1C(=O)Nc1ccc(Br)c(C(=O)NC2CC2)c1 [Ik-175] here?
Its logP is 3.39^a).

With Cn1nc(OC(F)F)c(I)c1C(=O)Nc1ccc(Cl)c(C(=O)NCC(F)(F)F)c1 [Ik-241] as the compound, how does the logP read?
Its logP is 2.92^a).

Same assay, conditions: HPLC method a), eluent acetonitrile/water with formic acid; read-out: logP

For Cn1cc(Br)c(C(F)(F)C(F)(F)C(F)(F)F)n1 [4-Bromo-1-methyl-3-heptafluoropropyl-1H-pyrazole], which chromatographic logP is on record?
The chromatographic logP was 3.53.

Which chromatographic logP does the source give for Cn1nc(C(F)(F)C(F)(F)C(F)(F)C(F)(F)F)cc1C(=O)O [1-Methyl-3-nonafluorobutyl-1H-pyrazole-5-carboxylic acid] here?
The chromatographic logP was 3.01.

Same assay, conditions: HPLC on C18 phase inversion column, method a)

With COCn1nc(C(F)(F)C(F)(F)F)c(C(F)(F)F)c1C(=O)Nc1ccc(Cl)c(C(=O)NCC(F)(F)F)c1 [Ik-220] as the compound, how does the logP read?
Its logP is 3.82^a).

Same assay, conditions: HPLC phase inversion (reversed-phase) C18 column, HPLC method a), eluent acetonitrile/water with formic acid; read-out: logP

For Cn1nc(C(F)(F)OC(F)(F)OC(F)(F)F)c(Br)c1C(=O)O [4-Bromo-3-{[(difluoro(trifluoromethoxy)methoxy](difluoro)methyl}-1-methyl-1H-pyrazole-5-carboxylic acid], which chromatographic logP is on record?
Its chromatographic logP is 3.56.

With O=C(NC1CC1)c1cc(NC(=O)c2ncc(OCC(F)(F)F)cc2C(F)(F)F)ccc1Cl [Ii-7, N-[4-Chloro-3-(cyclopropylcarbamoyl)phenyl]-5-(2,2,2-trifluoroethoxy)-3-(trifluoromethyl)pyridine-2-carboxamide] as the compound, how does the chromatographic logP read?
The chromatographic logP was 2.9.

For Cn1nc(C(F)(F)F)c(C(F)(F)F)c1C(=O)O [1-Methyl-3,4-bis(trifluoromethyl)-1H-pyrazole-5-carboxylic acid], which chromatographic logP is on record?
The chromatographic logP was 1.47.

With COC(=O)c1cc(NC(=O)c2c(C(F)(F)F)c(C(F)(F)C(F)(F)F)nn2C)ncc1Br [methyl 5-bromo-2-({[1-methyl-3-(pentafluoroethyl)-4-(trifluoromethyl)-1H-pyrazol-5-yl]carbonyl}amino)-isonicotinate] as the compound, how does the chromatographic logP read?
The chromatographic logP was 4.04.

With COC(=O)c1cc(N(C(=O)c2c(C(F)(F)F)c(C(F)(F)C(F)(F)F)nn2C)C(=O)c2c(C(F)(F)F)c(C(F)(F)C(F)(F)F)nn2C)ccc1Cl [Methyl 5-(bis{[1-methyl-3-(pentafluoroethyl)-4-(trifluoromethyl)-1H-pyrazol-5-yl]carbonyl}amino)-2-chlorobenzoate] as the compound, how does the chromatographic logP read?
Its chromatographic logP is 5.85.

For Cc1nc(C(F)(F)C(F)(F)F)ncc1C(=O)O [4-Methyl-2-(pentafluoroethyl)pyrimidine-5-carboxylic acid], which chromatographic logP is on record?
Its chromatographic logP is 1.97.

Which chromatographic logP does the source give for Cn1nc(C(F)(F)C(F)(F)F)c(C(F)(F)F)c1C(=O)Nc1cc(C(=O)O)c(Br)cn1 [5-bromo-2-({[1-methyl-3-(pentafluoroethyl)-4-(trifluoromethyl)-1H-pyrazol-5-yl]carbonyl}amino)isonicotinic acid] here?
The chromatographic logP was 2.85.

For CCOC(=O)c1cnc(C(F)(F)C(F)(F)F)nc1C(F)F [Ethyl 4-(difluoromethyl)-2-(pentafluoroethyl)pyrimidine-5-carboxylate], which chromatographic logP is on record?
Its chromatographic logP is 3.42.
